# Tests used:
# [1] = tested on: PPARs target genes (PDK4, ApoCIII); experiment: Hepatic gene expression by quantitative RT-PCR in E2/E2 mouse; assay type: in vivo; conditions: E2/E2 mouse, 5, 10, and 50 mpk, 8 days, normalized to 36B4
# Description: The effectiveness of the compounds according to the invention is also evaluated by measuring, in the hepatic tissue, the expression of genes involved in lipid and/or glucid metabolism and in energy dissipation. Each level of gene expression is normalized regarding the expression level of the reference gene 36B4. The induction factor, i.e. the ratio between the relative signal (induced by the compound according to the invention) and the average of the relative values obtained with the control group, is then calculated. The higher the induction factor is, the more the compound promotes hepatic gene expression. […]
# The agonist properties of PPARα previously measured in vitro should, in the liver, lead to an over-expression of the target genes directly under the control of the PPARα. […]
# Gene expression analysis by quantitative RT-PCR Total RNA is extracted from liver fragments by using a NucleoSpin® 96 RNA kit (Macherey Nagel, Hoerdt, France) according to the manufacturer's instructions.
# 1 μg of total RNA (quantified by using the Ribogreen RNA quantification kit (Molecular Probes)) is then reverse-transcribed into complementary DNA by means of a 1 hour reaction at 37° C. in a total volume of 20 μl containing a 1× buffer (Sigma), 1.5 mM of DTT, 0.18 mM of dNTPs (Promega), 200 ng of pdN6 (Amersham), 30 U of RNase inhibitor (Sigma), and 1 μl of MMLV-RT (Sigma). […]
# [2] = tested on: PPARs target genes (PDK4, ApoCIII); experiment: Hepatic gene expression by quantitative RT-PCR in C57BI6 mouse; assay type: in vivo; conditions: C57BI6 mouse, 3, 10, and 30 mpk, 14 days, normalized to 36B4
# Description: The effectiveness of the compounds according to the invention is also evaluated by measuring, in hepatic tissue, the expression of the genes involved in lipid metabolism. Each level of gene expression is normalized regarding the expression level of the reference gene 36B4. The induction factor is then calculated. The higher the induction factor is, the more the compound promotes hepatic gene expression. […]
# Total RNA was extracted from liver fragments by using a NucleoSpin® 96 RNA kit (Macherey Nagel, Hoerdt, France) according to the manufacturer's instructions. 1 μg of total RNA (quantified by spectrophotometry) was then reverse-transcripted into cDNA by means of a 1 hour reaction at 37° C. in a total volume of 20 μl containing a 1× buffer (Sigma), 1.5 mM of DTT, 0.18 mM of dNTPs (Promega), 200 ng of pdN6 (Amersham), 30 U of RNase inhibitor (Sigma), and 1 μl of MMLV-RT (Sigma).
# The PCR quantitative experiments were carried out using the MyiQ Single-Color Real-Time PCR Detection System (Biorad, Marnes-la-Coquette, France) and were performed using the iQ SYBR Green Supermix kit according to the provider's recommendations, in 96-well plates in 5 μl of a diluted reverse transcription solution and at a hybridization temperature of 55° C. […]
# The amount of fluorescence emitted is directly proportional to the amount of cDNA present at the beginning of the reaction and amplified during the PCR. […]
structure (smiles),measurement,setting,value
"Cc1cc(CCC(=O)c2ccc(OC(F)(F)F)cc2)cc(C)c1OC(C)(C)C(=O)O [Compound 1, 2-[2,6-dimethyl-4-[3-[4-(trifluoromethyloxy)phenyl]-3-oxo-propyl]phenoxy]-2-methyl-propanoic acid]",hepatic expression of the gene coding for ApoCIII,[1],reduction
same,hepatic expression of the gene coding for PDK4,[1],significant increase
same,hepatic expression of the gene coding for ApoCIII,[2],reduction
same,hepatic expression of the gene coding for PDK4,[2],significant increase
